# ChEMBL document CHEMBL1133858, “BMS-196085: a potent and selective full agonist of the human beta(3) adrenergic receptor” (Bioorg Med Chem Lett, 2001)
# Columns and labels:
# [1] = biological target: T1, Beta-3 adrenergic receptor (Homo sapiens, UniProt P13945); assay: Agonist activity was assessed by measurement of cAMP accumulation levels in CHO membranes expressing human beta-3 receptor; type: functional, cell membranes
# Target sequence in this assay (P13945 whole entry, looked up): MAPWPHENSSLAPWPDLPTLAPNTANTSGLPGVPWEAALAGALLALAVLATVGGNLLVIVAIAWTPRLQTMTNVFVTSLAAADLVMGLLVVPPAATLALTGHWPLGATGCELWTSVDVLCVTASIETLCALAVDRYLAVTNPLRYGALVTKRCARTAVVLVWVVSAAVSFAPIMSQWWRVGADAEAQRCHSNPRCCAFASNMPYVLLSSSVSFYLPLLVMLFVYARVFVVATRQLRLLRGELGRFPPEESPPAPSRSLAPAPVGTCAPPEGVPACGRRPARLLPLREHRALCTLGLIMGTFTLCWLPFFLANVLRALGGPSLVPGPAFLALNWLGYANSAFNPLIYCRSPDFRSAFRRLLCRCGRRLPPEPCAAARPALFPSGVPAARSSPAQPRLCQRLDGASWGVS
# [2] = biological target: T1, Beta-3 adrenergic receptor; assay: Binding affinity to CHO cells expressing the cloned human beta-3 adrenergic receptor in the presence of [125I]iodocyanopindolol; type: cell-based
# Target sequence in this assay (P13945 whole entry): as the sequence (P13945 whole entry, looked up) above
# [3] = system: ADRB1+ADRB3 (+); assay: Tested for binding selectivity to beta3 adrenoceptor versus beta-1 adrenoceptor
# [4] = system: ADRB2+ADRB3 (+); assay: Tested for binding selectivity to beta3 adrenoceptor versus beta2 adrenoceptor
# [5] = Dose that produced tachycardia in african green monkeys after iv administration; type: functional, Cercopithecidae
# [6] = Tested for lowest dose required to produce change in plasma potassium level divided by effective dose for lipolysis african green monkey 30 min after iv administration; type: functional, Cercopithecidae
# [7] = Tested for Lowest dose required to produce tachycardia divided by effective dose for lipolysis african green monkey 30 min after iv administration; type: functional, Cercopithecidae
# [8] = biological target: Beta-1 adrenergic receptor (Cavia porcellus) (UniProt B0FL73); assay: Beta1 receptor intrinsic activity is given as a percent of the maximal increase in the beating rate of an isolated spontaneously beating guinea pig atrium induced by isoproterenol; type: functional, tissue-based; settings: Cardiac atrium
# [9] = In vivo effective dose for lipolysis in african monkeys after iv administration; type: functional; settings: Cercopithecidae
# [10] = Tested for Lowest dose required to produce change in plasma potassium level divided by effective dose for lipolysis african green monkey 30 min after iv administration; type: functional, Cercopithecidae
# [11] = biological target: T1, Beta-3 adrenergic receptor; assay: Human beta-3 receptor agonist activity was assessed by measurement of cAMP accumulation levels in CHO cells expressing human beta-3 receptor; type: functional, cell-based
# Target sequence in this assay (P13945 whole entry, looked up): as above
# [12] = Tested for Clearance upon iv administration to african green monkey; type: ADME, organism-based; settings: cercopithecidae, in vivo
# [13] = biological target: Beta-2 adrenergic receptor (Homo sapiens) (UniProt P07550); assay: Tested for Intrinsic activity (IA) against adenylate cyclase in CHO cells transfected with human beta-2 adrenoceptor; type: functional, cell-based
# [14] = Lowest dose required to produce statistically significant hypokalemia divided by ED50 for lipolysis in african green monkeys after 30 min (iv); type: functional, Cercopithecidae
# [15] = Oral systemic bioavailability […] to african green monkey; type: ADME, organism-based; settings: cercopithecidae, in vivo, read-out: Bioavailabiility
# [16] = Tested for volume of distribution upon iv administration to african green monkey; type: ADME, organism-based; settings: cercopithecidae, in vivo
# [17] = Tested for half life upon iv administration to african green monkey; type: ADME, organism-based; settings: cercopithecidae, in vivo
# [18] = Lowest dose required to produce statistically significant tachycardia divided by ED50 for lipolysis in african green monkeys after 30 min (iv); type: functional, Cercopithecidae
# [19] = biological target: Beta-1 adrenergic receptor (Homo sapiens) (UniProt P08588); assay: Tested for Intrinsic activity (IA) against adenylate cyclase in CHO cells transfected with human beta-1 adrenoceptor; type: functional, cell-based
# [20] = species on record: Homo sapiens; assay: Transdermal flux across human cadaver skin; type: functional
# [21] = biological target: Beta-3 adrenergic receptor (Mus musculus, UniProt P25962); assay: Tested for binding affinity to murine Beta-3 adrenergic receptor
# Chain of Beta-3 adrenergic receptor (Mus musculus, UniProt P25962) (P25962 whole entry): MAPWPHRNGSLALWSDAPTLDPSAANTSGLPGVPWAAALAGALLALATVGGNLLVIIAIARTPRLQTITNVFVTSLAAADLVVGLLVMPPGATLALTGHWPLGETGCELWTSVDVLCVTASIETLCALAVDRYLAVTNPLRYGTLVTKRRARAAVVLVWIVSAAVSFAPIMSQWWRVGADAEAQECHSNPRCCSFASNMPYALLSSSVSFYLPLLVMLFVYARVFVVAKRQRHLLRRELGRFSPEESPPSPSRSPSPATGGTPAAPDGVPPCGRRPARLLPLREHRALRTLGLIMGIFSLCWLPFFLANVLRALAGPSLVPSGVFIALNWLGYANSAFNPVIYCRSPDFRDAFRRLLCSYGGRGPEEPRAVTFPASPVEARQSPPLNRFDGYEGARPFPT
# Chain of Beta-1 adrenergic receptor (Cavia porcellus) (B0FL73 1-467): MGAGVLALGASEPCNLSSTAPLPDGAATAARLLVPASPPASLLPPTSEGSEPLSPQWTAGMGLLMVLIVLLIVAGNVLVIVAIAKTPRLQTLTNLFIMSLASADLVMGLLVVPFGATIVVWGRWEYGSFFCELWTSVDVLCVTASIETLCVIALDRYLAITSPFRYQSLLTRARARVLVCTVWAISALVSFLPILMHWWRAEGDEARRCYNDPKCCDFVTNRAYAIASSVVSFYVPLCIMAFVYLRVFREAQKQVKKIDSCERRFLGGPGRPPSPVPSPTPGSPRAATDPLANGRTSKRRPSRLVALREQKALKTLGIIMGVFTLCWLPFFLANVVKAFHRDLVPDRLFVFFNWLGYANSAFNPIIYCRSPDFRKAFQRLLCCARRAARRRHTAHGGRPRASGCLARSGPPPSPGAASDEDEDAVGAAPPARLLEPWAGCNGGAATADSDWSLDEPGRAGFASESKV
# Chain of Beta-1 adrenergic receptor (Homo sapiens) (P08588 whole entry, looked up): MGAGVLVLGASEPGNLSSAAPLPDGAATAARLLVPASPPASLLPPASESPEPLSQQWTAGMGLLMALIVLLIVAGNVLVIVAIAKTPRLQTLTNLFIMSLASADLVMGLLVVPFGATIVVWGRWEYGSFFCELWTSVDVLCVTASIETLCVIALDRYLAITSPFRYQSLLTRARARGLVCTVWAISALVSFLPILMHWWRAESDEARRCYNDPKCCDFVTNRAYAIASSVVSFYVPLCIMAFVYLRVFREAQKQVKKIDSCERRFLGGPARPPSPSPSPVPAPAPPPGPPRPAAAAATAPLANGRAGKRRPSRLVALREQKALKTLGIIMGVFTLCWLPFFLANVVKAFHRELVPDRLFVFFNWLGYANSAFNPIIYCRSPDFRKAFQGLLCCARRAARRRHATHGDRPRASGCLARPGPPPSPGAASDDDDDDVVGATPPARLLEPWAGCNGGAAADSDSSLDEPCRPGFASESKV
# Chain of Beta-2 adrenergic receptor (Homo sapiens) (P07550 whole entry, looked up): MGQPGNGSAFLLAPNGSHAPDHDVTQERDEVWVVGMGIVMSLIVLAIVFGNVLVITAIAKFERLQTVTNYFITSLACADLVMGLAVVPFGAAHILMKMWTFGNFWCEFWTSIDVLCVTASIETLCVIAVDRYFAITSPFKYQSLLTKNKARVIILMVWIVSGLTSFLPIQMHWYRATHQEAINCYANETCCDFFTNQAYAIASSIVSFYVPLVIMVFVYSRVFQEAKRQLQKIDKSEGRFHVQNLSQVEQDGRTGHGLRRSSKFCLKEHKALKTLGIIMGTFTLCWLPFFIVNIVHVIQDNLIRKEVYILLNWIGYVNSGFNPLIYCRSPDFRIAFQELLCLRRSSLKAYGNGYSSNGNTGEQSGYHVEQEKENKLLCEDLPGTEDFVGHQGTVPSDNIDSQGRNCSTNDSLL
SMILES,Intrinsic activity [1] [%],Ki [2] [nM],Selectivity ratio [3],Selectivity ratio [4],further results
COC(=O)c1ccc([C@@H](Cc2ccccc2)NC[C@H](O)c2ccc(O)c(NS(C)(=O)=O)c2)cc1,98,85,–,–,–
CS(=O)(=O)Nc1cc([C@@H](O)CNC(Cc2ccccc2)c2ccc(OC(F)(F)F)cc2)ccc1O (stereo partly specified),–,210,25,2,–
CS(=O)(=O)Nc1cc([C@@H](O)CN[C@H](Cc2ccccc2)c2ccc3c(c2)OCO3)ccc1O,94,8,52,8,Dose [5]: 0.1 mg/kg; Margin before onset of hypokalemia [6]: 2; Margin before onset of tachycardia [7]: 1; Activity [8]: 80%; ED50 [9]: 0.02 mg/kg
CS(=O)(=O)Nc1cc(C(O)CNC(Cc2ccccc2)c2ccc3sccc3c2)ccc1O (stereo unspecified),90,230,19,2,–
Cc1cc([C@@H](Cc2ccccc2)NC[C@H](O)c2ccc(O)c(NS(C)(=O)=O)c2)ccc1OC(F)F,–,69,–,–,–
CS(=O)(=O)Nc1cc([C@@H](O)CN[C@H](Cc2ccccc2)c2ccc(C(=O)NO)cc2)ccc1O,106,147,537,4,–
COc1ccc([C@@H](Cc2ccccc2)NC[C@H](O)c2ccc(O)c(NS(C)(=O)=O)c2)cn1,101,25,180,30,Activity [8]: 70%
CS(=O)(=O)Nc1cc([C@@H](O)CN[C@H](Cc2ccccc2)c2ccc(C(=O)O)cc2)ccc1O,123,8600,17,6,–
CS(=O)(=O)Nc1cc([C@@H](O)CN[C@H](Cc2ccccc2)c2ccc(C(N)=O)cc2)ccc1O,108,70,–,–,–
CS(=O)(=O)Nc1cc(C(O)CNC(Cc2ccccc2)c2ccccc2)ccc1O (stereo unspecified),–,360,15,3,Intrinsic activity [11]: 133%
CS(=O)(=O)Nc1cc(C(O)CNC(Cc2ccccc2)c2ccsc2)ccc1O (stereo unspecified),110,129,1,0.3,–
CS(=O)(=O)Nc1cc([C@@H](O)CNC(Cc2ccccc2)c2ccc(OCC(F)(F)F)cc2)ccc1O (stereo partly specified),–,84,83,1,–
CS(=O)(=O)Nc1cc([C@@H](O)CN[C@H](Cc2ccccc2)c2ccc(CC(N)=O)cc2)ccc1O,106,74,17,2,–
CS(=O)(=O)Nc1cc(C(O)CNC(Cc2ccccc2)c2ccc(S(C)(=O)=O)cc2)ccc1O (stereo unspecified),129,440,53,3,–
CS(=O)(=O)Nc1cc([C@@H](O)CN[C@H](Cc2ccccc2)c2ccc(C#N)cc2)ccc1O,107,210,30,4,–

# More lines, in order of falling Ki [2], values ahead:
Intrinsic activity [1] [%],Ki [2] [nM],Selectivity ratio [3],Selectivity ratio [4],SMILES,further results
45,2400,4,0.6,CS(=O)(=O)Nc1cc(C(O)CNC(Cc2ccccc2)c2nccs2)ccc1O (stereo unspecified),–
–,990,4,0.5,CS(=O)(=O)Nc1cc([C@@H](O)CNC(Cc2ccccc2)c2ccc(Oc3ccccc3)cc2)ccc1O (stereo partly specified),–
100,836,–,–,CS(=O)(=O)Nc1cc(C(O)CNC(Cc2ccccc2)c2ccc(F)cc2)ccc1O (stereo unspecified),–
98,800,25,0.4,CN(C)C(=O)c1ccc([C@@H](Cc2ccccc2)NC[C@H](O)c2ccc(O)c(NS(C)(=O)=O)c2)cc1,–
129,700,30,8,CS(=O)(=O)Nc1cc(C(O)CNC(Cc2ccccc2)c2ccncc2)ccc1O (stereo unspecified),–
102,120,79,3,CNC(=O)c1ccc([C@@H](Cc2ccccc2)NC[C@H](O)c2ccc(O)c(NS(C)(=O)=O)c2)cc1,–
–,70,–,–,CS(=O)(=O)Nc1cc([C@@H](O)CNC(Cc2ccccc2)c2ccc(OCc3ccccc3)cc2)ccc1O (stereo partly specified),–
105,43,33,6,CS(=O)(=O)Nc1cc([C@@H](O)CN[C@H](Cc2ccccc2)c2cccc3ccccc23)ccc1O,Margin before onset of hypokalemia [6]: 2; Margin before onset of tachycardia [7]: 2; Activity [8]: 40%; ED50 [9]: 0.25 mg/kg
–,38,37,0.4,CS(=O)(=O)Nc1cc([C@@H](O)CN[C@H](Cc2ccccc2)c2ccc(OC(F)F)c(OC(F)F)c2)ccc1O,–
85,26,46,9,COc1ccc([C@@H](Cc2ccccc2)NC[C@H](O)c2ccc(O)c(NS(C)(=O)=O)c2)c2ccccc12,Activity [8]: 22%
95,21,36,5,CS(=O)(=O)Nc1cc([C@@H](O)CN[C@H](Cc2ccccc2)c2ccc(OC(F)F)cc2)ccc1O,clearance [12]: 36 mL/min/kg; Intrinsic activity [13]: 45%; Margin before onset of hypokalemia [14]: 25; bioavailability [15]: 5%; Vd [16]: 10 L/kg; half-life [17]: 438 min; Dose [5]: 0.1 mg/kg; Margin before onset of tachycardia [18]: 5; Intrinsic activity [19]: 63%; Activity [20]: 12 ug cm**-2 hr-1; Ki [21]: 4 µM; Activity [8]: 45%; ED50 [9]: 0.02 mg/kg
94,15,–,–,COc1ccc([C@@H](Cc2ccccc2)NC[C@H](O)c2ccc(O)c(NS(C)(=O)=O)c2)c(OC)n1,Activity [8]: 60%
–,9,12,14,C[C@](Cc1ccccc1)(NC[C@H](O)c1ccc(O)c(NS(C)(=O)=O)c1)c1ccc(OC(F)F)cc1,–
100,2,275,9,CS(=O)(=O)Nc1cc([C@@H](O)CN[C@H](Cc2ccccc2)c2ccc(OC(F)F)c3ccccc23)ccc1O,Margin before onset of hypokalemia [10]: 2; Margin before onset of tachycardia [7]: 2; Activity [8]: 23%; ED50 [9]: 0.25 mg/kg
